In PubChem BioAssay (NCI):
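Following 48 hours of exposure in 96-well plates, responses at five concentrations were used to interpolate endpoints linearly. GI50 = concentration required for 50% inhibition of growth. The concentration for full growth arrest is given as TGI.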

What was measured:
Assay in all cases: inhibition of tumour cell growth, NCI panel, 48 h
HL-60(TB) leukemia = tested on: HL-60(TB) leukemia
IGROV1 ovarian = tested on: IGROV1 ovarian
EKVX NSCLC = tested on: EKVX NSCLC
COLO 205 colon = tested on: COLO 205 colon
SR leukemia = tested on: SR leukemia
RXF 393 renal = tested on: RXF 393 renal
SF-539 CNS = tested on: SF-539 CNS
KM12 colon = tested on: KM12 colon
CCRF-CEM leukemia = tested on: CCRF-CEM leukemia
HCC-2998 colon = tested on: HCC-2998 colon
OVCAR-8 ovarian = tested on: OVCAR-8 ovarian
MOLT-4 leukemia = tested on: MOLT-4 leukemia
SF-268 CNS = tested on: SF-268 CNS
U251 CNS = tested on: U251 CNS
MDA-MB-435 = tested on: MDA-MB-435
M14 melanoma = tested on: M14 melanoma
HT29 colon = tested on: HT29 colon
RPMI-8226 leukemia = tested on: RPMI-8226 leukemia
SK-OV-3 ovarian = tested on: SK-OV-3 ovarian
T-47D breast = tested on: T-47D breast
DU-145 prostate = tested on: DU-145 prostate
SF-295 CNS = tested on: SF-295 CNS
HOP-92 NSCLC = tested on: HOP-92 NSCLC
K-562 leukemia = tested on: K-562 leukemia
HOP-62 NSCLC = tested on: HOP-62 NSCLC
LOX IMVI melanoma = tested on: LOX IMVI melanoma
SN12C renal = tested on: SN12C renal
OVCAR-5 ovarian = tested on: OVCAR-5 ovarian
OVCAR-4 ovarian = tested on: OVCAR-4 ovarian
NCI-H23 lung = tested on: NCI-H23 lung
SK-MEL-28 melanoma = tested on: SK-MEL-28 melanoma
A498 renal = tested on: A498 renal
OVCAR-3 ovarian = tested on: OVCAR-3 ovarian
HCT-15 colon = tested on: HCT-15 colon
HS 578T breast = tested on: HS 578T breast
CAKI-1 renal = tested on: CAKI-1 renal
SNB-75 CNS = tested on: SNB-75 CNS
MCF7 breast = tested on: MCF7 breast
NCI-H226 lung = tested on: NCI-H226 lung
ACHN renal = tested on: ACHN renal
HCT-116 colon = tested on: HCT-116 colon
UACC-257 melanoma = tested on: UACC-257 melanoma
SK-MEL-2 melanoma = tested on: SK-MEL-2 melanoma
UACC-62 melanoma = tested on: UACC-62 melanoma
BT-549 breast = tested on: BT-549 breast
NCI-H460 lung = tested on: NCI-H460 lung
SNB-19 CNS = tested on: SNB-19 CNS
NCI-H522 lung = tested on: NCI-H522 lung
UO-31 renal = tested on: UO-31 renal
MDA-MB-231 breast = tested on: MDA-MB-231 breast
786-0 renal = tested on: 786-0 renal
SW-620 colon = tested on: SW-620 colon
TK-10 renal = tested on: TK-10 renal
A549 NSCLC = tested on: A549 NSCLC
NCI/ADR-RES ovarian = tested on: NCI/ADR-RES ovarian
PC-3 prostate = tested on: PC-3 prostate
MALME-3M melanoma = tested on: MALME-3M melanoma
SK-MEL-5 melanoma = tested on: SK-MEL-5 melanoma

CCCn1cnc2c(c1=N)C(c1ccc(Cl)cc1)c1sc3c(CC)cccc3c1O2 (stereo not given)
GI50 (HL-60(TB) leukemia): 307 nM | TGI (HL-60(TB) leukemia): 1660 nM | GI50 (IGROV1 ovarian): 607 nM | TGI (IGROV1 ovarian): 11800 nM | GI50 (EKVX NSCLC): 1120 nM | TGI (EKVX NSCLC): 16600 nM | GI50 (COLO 205 colon): 971 nM | TGI (COLO 205 colon): 3930 nM | GI50 (SR leukemia): 342 nM | TGI (SR leukemia): 5010 nM | GI50 (RXF 393 renal): 273 nM | TGI (RXF 393 renal): 1310 nM | GI50 (SF-539 CNS): 410 nM | TGI (SF-539 CNS): 1900 nM | GI50 (KM12 colon): 448 nM | TGI (KM12 colon): 13400 nM | GI50 (CCRF-CEM leukemia): 370 nM | GI50 (HCC-2998 colon): 1750 nM | TGI (HCC-2998 colon): 7550 nM | GI50 (OVCAR-8 ovarian): 1380 nM | TGI (OVCAR-8 ovarian): 13400 nM | GI50 (MOLT-4 leukemia): 644 nM | TGI (MOLT-4 leukemia): 9250 nM | GI50 (SF-268 CNS): 820 nM | TGI (SF-268 CNS): 15200 nM | GI50 (U251 CNS): 505 nM | TGI (U251 CNS): 10900 nM | GI50 (MDA-MB-435): 250 nM | TGI (MDA-MB-435): 1000 nM | GI50 (M14 melanoma): 588 nM | TGI (M14 melanoma): 9750 nM | GI50 (HT29 colon): 725 nM | TGI (HT29 colon): 6130 nM | GI50 (RPMI-8226 leukemia): 471 nM | TGI (RPMI-8226 leukemia): 7390 nM | GI50 (SK-OV-3 ovarian): 670 nM | TGI (SK-OV-3 ovarian): 20800 nM | GI50 (T-47D breast): 581 nM | TGI (T-47D breast): 14900 nM | GI50 (DU-145 prostate): 615 nM | TGI (DU-145 prostate): 11400 nM | GI50 (SF-295 CNS): 385 nM | TGI (SF-295 CNS): 3750 nM | GI50 (HOP-92 NSCLC): 1250 nM | TGI (HOP-92 NSCLC): 12800 nM | GI50 (K-562 leukemia): 328 nM | TGI (K-562 leukemia): 6150 nM | GI50 (HOP-62 NSCLC): 563 nM | TGI (HOP-62 NSCLC): 8930 nM | GI50 (LOX IMVI melanoma): 706 nM | TGI (LOX IMVI melanoma): 10900 nM | GI50 (SN12C renal): 1580 nM | TGI (SN12C renal): 15000 nM | GI50 (OVCAR-5 ovarian): 2130 nM | TGI (OVCAR-5 ovarian): 13300 nM | GI50 (OVCAR-4 ovarian): 1200 nM | TGI (OVCAR-4 ovarian): 18200 nM | GI50 (NCI-H23 lung): 974 nM | TGI (NCI-H23 lung): 11300 nM | GI50 (SK-MEL-28 melanoma): 2990 nM | TGI (SK-MEL-28 melanoma): 22400 nM | GI50 (A498 renal): 359 nM | TGI (A498 renal): 1830 nM | GI50 (OVCAR-3 ovarian): 347 nM | TGI (OVCAR-3 ovarian): 1780 nM | GI50 (HCT-15 colon): 497 nM | TGI (HCT-15 colon): 10400 nM | GI50 (HS 578T breast): 434 nM | TGI (HS 578T breast): 5640 nM | GI50 (CAKI-1 renal): 361 nM | TGI (CAKI-1 renal): 15600 nM | GI50 (SNB-75 CNS): 202 nM | TGI (SNB-75 CNS): 878 nM | GI50 (MCF7 breast): 354 nM | TGI (MCF7 breast): 11700 nM | GI50 (NCI-H226 lung): 936 nM | TGI (NCI-H226 lung): 10200 nM | GI50 (ACHN renal): 637 nM | TGI (ACHN renal): 17000 nM | GI50 (HCT-116 colon): 446 nM | TGI (HCT-116 colon): 10300 nM | GI50 (UACC-257 melanoma): 12200 nM | TGI (UACC-257 melanoma): 33700 nM | GI50 (SK-MEL-2 melanoma): 925 nM | TGI (SK-MEL-2 melanoma): 16000 nM | GI50 (UACC-62 melanoma): 515 nM | TGI (UACC-62 melanoma): 14500 nM | GI50 (BT-549 breast): 1960 nM | TGI (BT-549 breast): 16700 nM | GI50 (NCI-H460 lung): 392 nM | TGI (NCI-H460 lung): 10400 nM | GI50 (SNB-19 CNS): 592 nM | TGI (SNB-19 CNS): 15400 nM | GI50 (NCI-H522 lung): 407 nM | TGI (NCI-H522 lung): 5530 nM | GI50 (UO-31 renal): 712 nM | TGI (UO-31 renal): 18300 nM | GI50 (MDA-MB-231 breast): 1950 nM | TGI (MDA-MB-231 breast): 13700 nM | GI50 (786-0 renal): 555 nM | TGI (786-0 renal): 12900 nM | GI50 (SW-620 colon): 422 nM | TGI (SW-620 colon): 12800 nM | GI50 (TK-10 renal): 7620 nM | TGI (TK-10 renal): 23500 nM | GI50 (A549 NSCLC): 824 nM | TGI (A549 NSCLC): 14200 nM | GI50 (NCI/ADR-RES ovarian): 419 nM | TGI (NCI/ADR-RES ovarian): 2750 nM | GI50 (PC-3 prostate): 564 nM | TGI (PC-3 prostate): 14700 nM | GI50 (MALME-3M melanoma): 722 nM | TGI (MALME-3M melanoma): 20300 nM | GI50 (SK-MEL-5 melanoma): 683 nM | TGI (SK-MEL-5 melanoma): 11500 nM
